Laboratory results taken from patent US5710123A, “Peptide inhibitors of selectin binding” (Centocor, Inc., priority 1995, dated 1998).
Where no end group is shown, it is not given here.

Target: T1, P-selectin (Homo sapiens, UniProt P16109)
T1 construct: from tissue; host or cells: outdated human platelet packs from a blood bank
T1 sequence (P16109 42-830): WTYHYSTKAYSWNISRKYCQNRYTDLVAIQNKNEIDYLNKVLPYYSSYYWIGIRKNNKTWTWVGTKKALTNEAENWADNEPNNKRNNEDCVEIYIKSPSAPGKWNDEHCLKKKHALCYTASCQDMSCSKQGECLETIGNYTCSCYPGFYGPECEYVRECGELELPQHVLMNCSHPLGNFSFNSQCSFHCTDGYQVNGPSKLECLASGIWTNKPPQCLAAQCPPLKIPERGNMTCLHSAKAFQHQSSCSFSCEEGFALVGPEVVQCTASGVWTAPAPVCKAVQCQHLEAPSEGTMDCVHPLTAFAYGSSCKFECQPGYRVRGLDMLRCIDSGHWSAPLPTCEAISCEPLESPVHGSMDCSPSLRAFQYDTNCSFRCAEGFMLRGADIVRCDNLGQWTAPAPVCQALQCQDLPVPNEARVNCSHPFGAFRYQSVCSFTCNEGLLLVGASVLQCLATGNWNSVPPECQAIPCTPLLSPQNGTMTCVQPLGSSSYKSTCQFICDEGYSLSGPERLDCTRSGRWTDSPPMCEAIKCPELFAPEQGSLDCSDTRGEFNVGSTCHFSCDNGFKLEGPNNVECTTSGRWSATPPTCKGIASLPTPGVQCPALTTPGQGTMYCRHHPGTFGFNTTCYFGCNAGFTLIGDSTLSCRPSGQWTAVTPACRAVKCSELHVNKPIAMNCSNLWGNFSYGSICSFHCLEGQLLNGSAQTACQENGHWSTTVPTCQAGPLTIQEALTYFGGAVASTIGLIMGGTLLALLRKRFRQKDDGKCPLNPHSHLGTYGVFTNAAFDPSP
Test: Inhibition of binding of human neutrophils to P-selectin (neutrophil adhesion to purified immobilized P-selectin, myeloperoxidase readout)
Format: cell-based
Details: P-selectin purified from human platelets, plated at 5 micrograms/mL, peptides tested 1.0 mM to 0.001 mM
Text: Peptides can be screened for their ability to inhibit adhesion to cells, for example, neutrophil adhesion to purified P-selectin immobilized on plastic wells, using the assay described by Geng, et al., Nature 343, 757-760 1990). Human neutrophils are isolated from heparinized […] blood by density gradient centrifugation on Mono-Poly resolving media, Flow Laboratories. Neutrophil suspensions are greater than 98% pure and greater than 95% viable by trypan blue exclusion. For adhesion assays, neutrophils are suspended at a concentration of 2×10^6 cells/mL in Hanks' balanced salt solution containing 1.26 mM Ca^2+ and 0.81 mM Mg^2+ (HBSS, Gibco) with […] human serum albumin (HBSS/HSA). Adhesion assays are conducted in triplicate in 96-well microtiter plates, Corning, incubated at 4° C. overnight with 50 microliters of various protein solutions. P-selectin is isolated from human platelet lysates by immunoaffinity chromatography on antibody S12-Sepharose™ and ion-exchange chromatography on a Mono-Q™ column (FLPC, Pharmacia Fine Chemicals), as follows. Outdated human platelet packs (100 units) obtained from a blood bank and stored at 4° C. are pooled, adjusted to 5 mM EDTA at pH 7.5, centrifuged at 4,000 rpm for 30 minutes in 1 liter bottles, then washed three times with 1 liter of 0.1M NaCl, 20 mM Tris pH 7.5 (TBS), 5 mM EDTA, 5 mM benzamidine. The pellets are then resuspended in a minimum amount of wash buffer and made 1 mM in DIFP, then frozen in 50 mL screwtop tubes at -80° C. The frozen platelets are thawed and resuspended in 50 mL TBS, 5 mM benzamidine, 5 mM EDTA pH 7.5, […]. The suspension is frozen and thawed two times in a dry ice-acetone bath using a 600 mL lyophilizing flask, then homogenized in a glass/teflon mortar and pestle and made 1 mM in DIFP. The NaCl concentration is adjusted to 0.5M with a stock solution of 4M NaCl. After stirring the suspension at 4° C., it is centrifuged in polycarbonate tubes at 33,000 rpm for 60 minutes at 4° C. The supernatant (0.5M NaCl wash) is removed and saved; this supernatant contains the soluble form of P-selectin. Care is taken not to remove the top part of the pellet with the supernatant. The pellets are then homogenized in extraction buffer (TBS, 5 mM benzamidine, 5 mM EDTA, pH 7.5, 100 μM leupeptin, 2% Triton X-100). After centrifugation at 19,500 rpm for 25 minutes at 4° C., the supernatant is removed. The extraction procedure is repeated with the pellet and the supernatant is combined with the first supernatant. The combined extracts, which contain the membrane form of P-selectin, are adjusted to 0.5M NaCl. The soluble fraction (0.5M NaCl wash) and the membrane extract (also adjusted to 0.5M NaCl) are absorbed with separate pools of the monoclonal antibody S12 (directed to P-selectin) previously coupled to Affigel (Biorad) at 5 mg/mL for 2 hours at 4° C. After letting the resins settle, the supernatants are removed. The S12 Affigel containing bound GMP-140 is then loaded into a column and washed overnight at 4° C. with 400 mL of 0.5M NaCl, 20 mM Tris pH 7.5, 0.01% Lubrol PX. Bound P-selectin is eluted from the S12 Affigel with 100 mL of 80% ethylene glycol, 1 mM MES pH 6.0, 0.01% Lubrol PX. Peak fractions with absorbance at 280 nm are pooled. Eluates are dialyzed against TBS with 0.05% Lubrol, then applied to a Mono Q column (FPLC from Pharmacia). The concentrated protein is step eluted with 2M NaCl, 20 mM Tris pH 7.5 (plus 0.05% Lubrol PX for the membrane fraction). Peak fractions are dialyzed into TBS pH 7.5 (plus 0.05% Lubrol PX for the membrane fraction). P-selectin is plated at 5 micrograms/mL and the control proteins: human serum albumin (Alb), platelet glycoprotein IIb/IIIa (IIb), von Willsbrand factor (vWF), fibrinogen (FIB), thrombomodulin (TM), gelatin (GEL) or human serum (HS), are added at 50 micrograms/mL. […]

| Substance | IC50 [µM] |
| --- | --- |
| SKKKLALCF-NH2 [SEQ ID NO: 29, SKKKLALCF--NH2] | 65 |
| SKKKLALCI-NH2 [SEQ ID NO: 30, SKKKLALCI--NH2] | 867 |
| SKKKLALCY-NH2 [SEQ ID NO: 31, SKKKLALCY--NH2] | 19 |
| SKKKLALFY-NH2 [SEQ ID NO: 32, SKKKLALFY--NH2] | 15 |
| SKKKLALHY-NH2 [SEQ ID NO: 36, SKKKLALHY--NH2] | 177 |
| SKKKLALIV-NH2 [SEQ ID NO: 33, SKKKLALIV--NH2] | 390 |
| SKKKLALIY-NH2 [SEQ ID NO: 35, SKKKLALIY--NH2] | 43 |
| SKKKLALLY-NH2 [SEQ ID NO: 38, SKKKLALLY--NH2] | 131 |
| SKKKLALTY-NH2 [SEQ ID NO: 41, SKKKLALTY--NH2] | 423 |
| SKKKLALVY-NH2 [SEQ ID NO: 40, SKKKLALVY--NH2] | 233 |
| SKKKLAPCY-NH2 [SEQ ID NO: 42, SKKKLAPCY--NH2] | 897 |
| SKKKLFLCY-NH2 [SEQ ID NO: 43, SKKKLFLCY--NH2] | 95 |
| SKKKLHLCY-NH2 [SEQ ID NO: 44, SKKKLHLCY--NH2] | 207 |
| SKKKLILCY-NH2 [SEQ ID NO: 45, SKKKLILCY--NH2] | 95 |
| SKKKLQACY-NH2 [SEQ ID NO: 46, SKKKLQACY--NH2] | 329 |
| SKKQLALCY-NH2 [SEQ ID NO: 48, SKKQLALCY--NH2] | 195 |
| SKKRLALCY-NH2 [SEQ ID NO: 50, SKKRLALCY--NH2] | 4 |
| SKLKLALCY-NH2 [SEQ ID NO: 52, SKLKLALCY--NH2] | 9 |
| SKRKLALCY-NH2 [SEQ ID NO: 54, SKRKLALCY--NH2] | 4 |
| SKRKRALCY-NH2 [SEQ ID NO: 56, SKRKRALCY--NH2] | 24 |
| SKRRLALCY-NH2 [SEQ ID NO: 58, SKRRLALCY--NH2] | 8 |
| SKRRLALSY-NH2 [SEQ ID NO: 59, SKRRLALSY--NH2] | 632 |
| SKSKLALCY-NH2 [SEQ ID NO: 60, SKSKLALCY--NH2] | 858 |
| SRKKLALCY-NH2 [SEQ ID NO: 64, SRKKLALCY--NH2] | 16 |
| SRKRLALCY-NH2 [SEQ ID NO: 66, SRKRLALCY--NH2] | 3 |
| SRKRLALSY-NH2 [SEQ ID NO: 67, SRKRLALSY--NH2] | 586 |
| SRRKLALCY-NH2 [SEQ ID NO: 69, SRRKLALCY--NH2] | 14 |
| SSKKLALCY-NH2 [SEQ ID NO: 70, SSKKLALCY--NH2] | 282 |
